Test results as given in ChEMBL document CHEMBL4507260 (2021).

Experiments:
[1] = molecular target: Phosphorylase b kinase regulatory subunit alpha, liver isoform (Homo sapiens) (UniProt P46019); details: Compound concentration 1000.0 nM
D(4) dopamine receptor = molecular target: T1, D(4) dopamine receptor (Homo sapiens, UniProt P21917); assay: Cellular FLIPR (fluorometric imaging plate reader) assay
T1 sequence (P21917 whole entry): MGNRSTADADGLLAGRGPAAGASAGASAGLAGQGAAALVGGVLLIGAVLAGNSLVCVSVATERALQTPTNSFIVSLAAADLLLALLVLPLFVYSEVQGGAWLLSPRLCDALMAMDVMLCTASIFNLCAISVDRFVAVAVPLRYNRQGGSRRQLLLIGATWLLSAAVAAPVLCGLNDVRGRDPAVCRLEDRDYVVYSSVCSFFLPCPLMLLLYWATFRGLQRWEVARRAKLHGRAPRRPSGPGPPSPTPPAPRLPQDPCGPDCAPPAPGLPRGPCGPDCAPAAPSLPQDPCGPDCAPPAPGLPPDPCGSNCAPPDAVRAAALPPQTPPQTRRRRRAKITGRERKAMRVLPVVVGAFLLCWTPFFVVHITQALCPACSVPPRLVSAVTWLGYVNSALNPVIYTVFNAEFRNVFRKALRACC

[2] = molecular target: Dual specificity protein kinase CLK4 (Homo sapiens) (UniProt Q9HAZ1); details: Compound concentration 1000.0 nM
[3] = molecular target: Substance-K receptor (Homo sapiens) (UniProt P21452); assay: NK2 CEREP ligand profiling; details: Compound concentration 10.0 uM
[4] = molecular target: Muscarinic acetylcholine receptor M5 (Homo sapiens) (UniProt P08912); details: Compound concentration 10.0 uM
Description: M5 CEREP ligand profiling

[5] = molecular target: 5-hydroxytryptamine receptor 3A (Homo sapiens) (UniProt P46098); details: Compound concentration 10.0 uM
Description: 5-HT3 CEREP ligand profiling

[6] = molecular target: Cannabinoid receptor 1 (Homo sapiens) (UniProt P21554); details: Compound concentration 10.0 uM
Description: CB1 CEREP ligand profiling

[7] = molecular target: Sodium-dependent dopamine transporter (Homo sapiens) (UniProt Q01959); assay: DA transporter CEREP ligand profiling; details: Compound concentration 10.0 uM
[8] = molecular target: Nociceptin receptor (Homo sapiens) (UniProt P41146); details: Compound concentration 10.0 uM
Description: ORL1 CEREP ligand profiling

[9] = molecular target: D(1B) dopamine receptor (Homo sapiens) (UniProt P21918); details: Compound concentration 10.0 uM
Description: D5 CEREP ligand profiling

[10] = molecular target: Muscarinic acetylcholine receptor M4 (Homo sapiens) (UniProt P08173); details: Compound concentration 10.0 uM
Description: M4 CEREP ligand profiling

[11] = molecular target: Cannabinoid receptor 2 (Homo sapiens) (UniProt P34972); details: Compound concentration 10.0 uM
Description: CB2 CEREP ligand profiling

[12] = molecular target: P2Y receptor (Homo sapiens) (UniProt Q9H244+P51582+P47900+P41231+Q15391+Q15077+Q96G91+Q9BPV8); details: Compound concentration 10.0 uM
Description: P2Y CEREP ligand profiling

[13] = molecular target: Vasopressin V1a receptor (Homo sapiens) (UniProt P37288); details: Compound concentration 10.0 uM
Description: V1A CEREP ligand profiling

[14] = molecular target: Beta-2 adrenergic receptor (Homo sapiens) (UniProt P07550); assay: b 2 CEREP ligand profiling; details: Compound concentration 10.0 uM
[15] = molecular target: Voltage-gated potassium channel (K+V channel) (Homo sapiens, UniProt O43525+O43526+O95259+P16389+P17658+P22001+P22459+P22460+P48547+P51787+P56696+Q03721+Q09470+Q12809+Q14003+Q14721+Q16322+Q6PIU1+Q8NCM2+Q8TAE7+Q8TDN1+Q8TDN2+Q92953+Q96KK3+Q96L42+Q96PR1+Q96RP8+Q9BQ31+Q9H252+Q9H3M0+Q9NR82+Q9NS40+Q9NSA2+Q9NZV8+Q9UIX4+Q9UJ96+Q9UK17+Q9ULD8+Q9ULS6+Q9UQ05); assay: K+V channel CEREP ligand profiling; assay type: protein assay; details: compound concentration 10 uM
[16] = molecular target: D(3) dopamine receptor (Homo sapiens) (UniProt P35462); details: Compound concentration 10.0 uM
Description: D3 CEREP ligand profiling

[17] = molecular target: D(1A) dopamine receptor (Homo sapiens) (UniProt P21728); assay: D1 CEREP ligand profiling; details: Compound concentration 10.0 uM
[18] = molecular target: Adenosine receptor A1 (Homo sapiens) (UniProt P30542); details: Compound concentration 10.0 uM
Description: A1 CEREP ligand profiling

[19] = molecular target: Histamine H1 receptor (Homo sapiens) (UniProt P35367); assay: H1 CEREP ligand profiling; details: Compound concentration 10.0 uM
[20] = molecular target: Neurotensin receptor type 1 (Homo sapiens) (UniProt P30989); details: Compound concentration 10.0 uM
Description: NT1 (NTS1) CEREP ligand profiling

[21] = molecular target: Adenosine receptor A2a (Homo sapiens) (UniProt P29274); assay: A2A CEREP ligand profiling; details: Compound concentration 10.0 uM
[22] = molecular target: 5-hydroxytryptamine receptor 7 (Homo sapiens) (UniProt P34969); details: Compound concentration 10.0 uM
Description: 5-HT7 CEREP ligand profiling

[23] = molecular target: Neuropeptide Y receptor type 2 (Homo sapiens) (UniProt P49146); details: Compound concentration 10.0 uM
Description: Y2 CEREP ligand profiling

[24] = molecular target: 5-hydroxytryptamine receptor 1B (Homo sapiens) (UniProt P28222); details: Compound concentration 10.0 uM
Description: 5-HT1B CEREP ligand profiling

[25] = molecular target: Pituitary adenylate cyclase-activating polypeptide type I receptor (Homo sapiens) (UniProt P41586); details: Compound concentration 10.0 uM
Description: PACAP CEREP ligand profiling

[26] = molecular target: Adenosine receptor A3 (Homo sapiens) (UniProt P0DMS8); assay: A3 CEREP ligand profiling; details: Compound concentration 10.0 uM
[27] = molecular target: Neuropeptide Y receptor type 1 (Homo sapiens) (UniProt P25929); details: Compound concentration 10.0 uM
Description: Y1 CEREP ligand profiling

[28] = molecular target: Melatonin receptor type 1A (Homo sapiens) (UniProt P48039); assay: ML1 CEREP ligand profiling; details: Compound concentration 10.0 uM
[29] = molecular target: C-X-C chemokine receptor type 2 (Homo sapiens) (UniProt P25025); details: Compound concentration 10.0 uM
Description: IL-8B (CXCR2) CEREP ligand profiling

[30] = molecular target: Calcium-activated potassium channel (Homo sapiens) (UniProt Q92952+Q9UGI6+Q12791+O15554+Q9H2S1+A8MYU2); details: Compound concentration 10.0 uM
Description: SK+Ca channel CEREP ligand profiling

[31] = molecular target: Adrenergic receptor alpha-1 (Homo sapiens) (UniProt P35348+P25100+P35368); assay: a 1 CEREP ligand profiling; assay type: protein assay; details: Compound concentration 10.0 uM
[32] = molecular target: Vasoactive intestinal polypeptide receptor 1 (Homo sapiens) (UniProt P32241); details: Compound concentration 10.0 uM
Description: VIP1 (VPAC1) CEREP ligand profiling

[33] = molecular target: Type-1 angiotensin II receptor (Homo sapiens) (UniProt P30556); details: Compound concentration 10.0 uM
Description: AT1 CEREP ligand profiling

[34] = molecular target: Prostacyclin receptor (Homo sapiens) (UniProt P43119); details: Compound concentration 10.0 uM
Description: PGI2 CEREP ligand profiling

[35] = molecular target: Tumor necrosis factor (Homo sapiens) (UniProt P01375); details: Compound concentration 10.0 uM
Description: TNF-a CEREP ligand profiling

[36] = molecular target: Bombesin receptor (Homo sapiens) (UniProt P28336+P32247+P30550); details: Compound concentration 10.0 uM
Description: Bombesin CEREP ligand profiling

Muscarinic acetylcholine receptor M4 (Homo sapiens), sequence (P08173 whole entry): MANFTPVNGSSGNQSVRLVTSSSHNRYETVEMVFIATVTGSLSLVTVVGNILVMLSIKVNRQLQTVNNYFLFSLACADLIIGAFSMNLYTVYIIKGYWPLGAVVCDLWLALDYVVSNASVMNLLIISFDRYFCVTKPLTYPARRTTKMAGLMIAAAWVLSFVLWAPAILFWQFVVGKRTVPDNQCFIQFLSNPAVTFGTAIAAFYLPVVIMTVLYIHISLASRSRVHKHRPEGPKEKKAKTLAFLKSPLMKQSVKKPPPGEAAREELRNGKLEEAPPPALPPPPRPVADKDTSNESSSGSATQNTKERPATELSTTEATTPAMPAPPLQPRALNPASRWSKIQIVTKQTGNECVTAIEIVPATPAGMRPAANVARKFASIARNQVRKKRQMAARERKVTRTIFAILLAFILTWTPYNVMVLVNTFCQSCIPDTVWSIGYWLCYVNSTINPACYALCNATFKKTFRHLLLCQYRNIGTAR
Cannabinoid receptor 1 (Homo sapiens), sequence (P21554 whole entry): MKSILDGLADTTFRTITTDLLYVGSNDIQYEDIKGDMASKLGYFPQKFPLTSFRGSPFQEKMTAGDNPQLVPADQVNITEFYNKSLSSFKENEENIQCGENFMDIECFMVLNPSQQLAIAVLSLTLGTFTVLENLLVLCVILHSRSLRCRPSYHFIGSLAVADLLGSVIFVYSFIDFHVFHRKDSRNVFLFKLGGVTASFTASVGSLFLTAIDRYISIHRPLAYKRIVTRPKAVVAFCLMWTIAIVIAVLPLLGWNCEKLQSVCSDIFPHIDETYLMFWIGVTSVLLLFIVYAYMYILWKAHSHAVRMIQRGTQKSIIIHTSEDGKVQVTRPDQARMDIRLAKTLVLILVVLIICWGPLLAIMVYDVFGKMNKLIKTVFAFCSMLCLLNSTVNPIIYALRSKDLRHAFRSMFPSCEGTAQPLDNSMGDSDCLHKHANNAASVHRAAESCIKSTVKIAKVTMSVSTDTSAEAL
Adenosine receptor A2a (Homo sapiens), sequence (P29274 whole entry): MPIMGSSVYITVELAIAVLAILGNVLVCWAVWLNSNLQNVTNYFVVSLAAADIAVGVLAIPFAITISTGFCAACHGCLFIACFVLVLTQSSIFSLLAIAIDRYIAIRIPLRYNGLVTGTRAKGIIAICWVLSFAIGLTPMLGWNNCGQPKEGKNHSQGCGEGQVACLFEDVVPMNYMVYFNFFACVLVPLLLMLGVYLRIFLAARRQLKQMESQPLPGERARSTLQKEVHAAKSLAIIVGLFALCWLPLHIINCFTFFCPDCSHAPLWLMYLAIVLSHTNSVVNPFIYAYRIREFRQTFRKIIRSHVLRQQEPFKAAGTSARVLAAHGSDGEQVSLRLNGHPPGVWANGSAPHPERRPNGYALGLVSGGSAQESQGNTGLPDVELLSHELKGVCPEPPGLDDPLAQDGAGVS
D(1A) dopamine receptor (Homo sapiens), sequence (P21728 whole entry): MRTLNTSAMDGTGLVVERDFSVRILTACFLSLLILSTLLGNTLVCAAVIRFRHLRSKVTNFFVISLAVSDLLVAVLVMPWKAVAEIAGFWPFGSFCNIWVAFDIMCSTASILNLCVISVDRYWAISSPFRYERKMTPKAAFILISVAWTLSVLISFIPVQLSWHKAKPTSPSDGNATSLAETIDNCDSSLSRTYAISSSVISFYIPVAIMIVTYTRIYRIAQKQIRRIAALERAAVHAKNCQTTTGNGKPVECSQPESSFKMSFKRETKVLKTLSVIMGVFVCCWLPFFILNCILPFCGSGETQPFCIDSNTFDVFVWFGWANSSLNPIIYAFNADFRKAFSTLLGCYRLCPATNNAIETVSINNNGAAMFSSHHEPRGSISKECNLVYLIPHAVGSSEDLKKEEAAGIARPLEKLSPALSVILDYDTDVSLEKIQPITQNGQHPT
D(3) dopamine receptor (Homo sapiens), sequence (P35462 whole entry): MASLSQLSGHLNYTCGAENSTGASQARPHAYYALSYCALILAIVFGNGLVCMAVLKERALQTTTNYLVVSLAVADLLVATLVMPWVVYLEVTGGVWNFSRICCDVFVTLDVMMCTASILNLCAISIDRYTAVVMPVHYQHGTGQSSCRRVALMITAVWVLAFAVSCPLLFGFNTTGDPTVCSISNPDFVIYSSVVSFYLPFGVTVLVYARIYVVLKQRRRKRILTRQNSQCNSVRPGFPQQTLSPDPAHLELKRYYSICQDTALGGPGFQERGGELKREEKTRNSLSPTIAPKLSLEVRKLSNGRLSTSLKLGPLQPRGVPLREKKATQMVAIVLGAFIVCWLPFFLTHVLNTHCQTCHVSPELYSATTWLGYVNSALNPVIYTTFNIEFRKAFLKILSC
Phosphorylase b kinase regulatory subunit alpha, liver isoform (Homo sapiens), sequence (P46019 whole entry, canonical isoform): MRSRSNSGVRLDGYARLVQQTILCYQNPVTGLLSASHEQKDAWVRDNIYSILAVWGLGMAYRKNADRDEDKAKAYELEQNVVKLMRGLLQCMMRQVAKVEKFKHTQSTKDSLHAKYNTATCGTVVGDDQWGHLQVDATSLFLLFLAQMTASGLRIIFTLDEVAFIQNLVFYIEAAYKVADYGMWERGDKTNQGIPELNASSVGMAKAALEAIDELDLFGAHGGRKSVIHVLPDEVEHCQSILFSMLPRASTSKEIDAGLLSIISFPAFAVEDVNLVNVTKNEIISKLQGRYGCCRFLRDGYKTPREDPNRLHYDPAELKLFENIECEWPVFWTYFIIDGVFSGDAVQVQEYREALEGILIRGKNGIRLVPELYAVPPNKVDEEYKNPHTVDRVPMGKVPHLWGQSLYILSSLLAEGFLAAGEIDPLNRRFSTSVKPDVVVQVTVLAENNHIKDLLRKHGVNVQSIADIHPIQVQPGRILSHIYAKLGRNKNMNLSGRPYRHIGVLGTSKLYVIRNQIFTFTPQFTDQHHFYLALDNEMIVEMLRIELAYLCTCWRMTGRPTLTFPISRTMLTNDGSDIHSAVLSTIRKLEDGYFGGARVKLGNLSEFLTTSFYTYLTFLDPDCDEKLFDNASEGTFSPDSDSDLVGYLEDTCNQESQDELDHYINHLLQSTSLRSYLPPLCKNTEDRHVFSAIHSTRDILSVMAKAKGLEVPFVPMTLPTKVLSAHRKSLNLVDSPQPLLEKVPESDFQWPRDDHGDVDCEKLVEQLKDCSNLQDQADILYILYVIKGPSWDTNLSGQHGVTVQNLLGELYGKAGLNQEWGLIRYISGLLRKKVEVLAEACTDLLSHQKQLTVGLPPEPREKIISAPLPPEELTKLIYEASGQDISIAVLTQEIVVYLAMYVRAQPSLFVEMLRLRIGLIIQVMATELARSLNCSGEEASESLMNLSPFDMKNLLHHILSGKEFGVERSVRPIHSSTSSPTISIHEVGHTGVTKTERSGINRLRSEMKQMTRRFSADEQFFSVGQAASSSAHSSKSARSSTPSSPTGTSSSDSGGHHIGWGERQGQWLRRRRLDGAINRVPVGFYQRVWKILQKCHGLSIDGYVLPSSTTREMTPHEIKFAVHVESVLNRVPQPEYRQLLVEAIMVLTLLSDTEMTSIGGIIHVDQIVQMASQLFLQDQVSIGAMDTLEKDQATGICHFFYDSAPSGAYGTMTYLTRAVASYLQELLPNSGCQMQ
Nociceptin receptor (Homo sapiens), sequence (P41146 whole entry): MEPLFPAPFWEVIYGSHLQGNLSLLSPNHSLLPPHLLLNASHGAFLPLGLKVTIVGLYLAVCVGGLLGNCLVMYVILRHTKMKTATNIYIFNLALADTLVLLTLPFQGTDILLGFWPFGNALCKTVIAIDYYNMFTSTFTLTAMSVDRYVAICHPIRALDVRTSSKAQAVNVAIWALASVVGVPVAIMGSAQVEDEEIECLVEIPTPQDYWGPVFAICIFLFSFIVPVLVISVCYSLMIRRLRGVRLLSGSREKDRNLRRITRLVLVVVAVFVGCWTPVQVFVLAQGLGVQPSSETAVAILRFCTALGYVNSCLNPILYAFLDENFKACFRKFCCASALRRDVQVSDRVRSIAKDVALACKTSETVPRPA
5-hydroxytryptamine receptor 3A (Homo sapiens), sequence (P46098 whole entry): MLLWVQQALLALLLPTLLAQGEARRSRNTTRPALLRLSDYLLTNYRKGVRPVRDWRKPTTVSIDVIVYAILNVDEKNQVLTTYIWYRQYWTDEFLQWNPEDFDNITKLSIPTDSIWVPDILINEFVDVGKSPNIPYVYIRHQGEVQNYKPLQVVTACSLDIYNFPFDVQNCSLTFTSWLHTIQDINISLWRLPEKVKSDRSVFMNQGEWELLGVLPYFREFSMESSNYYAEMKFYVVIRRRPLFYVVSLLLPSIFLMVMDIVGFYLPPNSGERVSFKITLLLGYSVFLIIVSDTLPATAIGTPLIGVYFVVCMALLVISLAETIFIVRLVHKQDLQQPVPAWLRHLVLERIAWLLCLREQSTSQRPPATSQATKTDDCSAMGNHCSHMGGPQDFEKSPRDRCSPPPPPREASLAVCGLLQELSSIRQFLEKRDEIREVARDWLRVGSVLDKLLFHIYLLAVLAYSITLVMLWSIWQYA
Beta-2 adrenergic receptor (Homo sapiens), sequence (P07550 whole entry, looked up): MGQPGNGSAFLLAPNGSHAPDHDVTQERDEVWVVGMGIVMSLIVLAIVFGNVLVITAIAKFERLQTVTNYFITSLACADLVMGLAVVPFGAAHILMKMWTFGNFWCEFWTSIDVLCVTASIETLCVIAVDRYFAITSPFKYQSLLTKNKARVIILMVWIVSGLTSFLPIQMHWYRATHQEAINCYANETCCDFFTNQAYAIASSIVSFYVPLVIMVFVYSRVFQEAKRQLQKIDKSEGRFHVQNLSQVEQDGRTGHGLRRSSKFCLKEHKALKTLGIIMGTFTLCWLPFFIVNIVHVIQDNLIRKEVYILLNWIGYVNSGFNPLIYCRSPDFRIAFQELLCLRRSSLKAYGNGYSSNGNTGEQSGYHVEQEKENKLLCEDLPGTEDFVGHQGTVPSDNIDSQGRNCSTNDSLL
Tumor necrosis factor (Homo sapiens), sequence (P01375 whole entry): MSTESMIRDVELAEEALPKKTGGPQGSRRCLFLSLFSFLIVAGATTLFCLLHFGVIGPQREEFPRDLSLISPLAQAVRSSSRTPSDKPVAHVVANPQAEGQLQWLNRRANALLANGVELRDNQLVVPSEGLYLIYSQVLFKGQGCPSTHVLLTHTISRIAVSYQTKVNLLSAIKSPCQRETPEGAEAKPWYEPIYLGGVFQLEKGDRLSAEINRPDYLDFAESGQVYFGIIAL

CSc1cccnc1N1CCN(Cc2nc3ccccc3[nH]2)CC1 [A-769]
residual activity [1]: 100% | IC50 (D(4) dopamine receptor): > 10 µM (not active) | residual activity [2]: 100%

c1ccc(N2CCN(Cc3nc4ccccc4[nH]3)CC2)nc1 [ABT-724]
inhibition [3]: 15% | inhibition [4]: < 10% | inhibition [5]: 10% | inhibition [6]: < 10% | inhibition [7]: 11% | inhibition [8]: < 10% | inhibition [9]: < 10% | inhibition [10]: < 10% | inhibition [11]: < 10% | inhibition [12]: < 10% | inhibition [13]: < 10% | inhibition [14]: 13% | inhibition at 10 µM [15]: < 10% (not active) | inhibition [16]: < 10% | inhibition [17]: 24% | inhibition [18]: < 10% | inhibition [19]: 17% | inhibition [20]: < 10% | inhibition [21]: 28% | inhibition [22]: < 10% | inhibition [23]: < 10% | inhibition [24]: < 10% | inhibition [25]: < 10% | inhibition [26]: 11% | inhibition [27]: < 10% | inhibition [28]: 51% | inhibition [29]: < 10% | inhibition [30]: < 10% | inhibition [31]: 23% | inhibition [32]: < 10% | inhibition [33]: < 10% | inhibition [34]: < 10% | inhibition [35]: < 10% | inhibition [36]: < 10%
